Reference: patent US11690850B2, “Inhibitors of receptor interacting protein kinase I for the treatment of disease” (Board of Regents, The University of Texas System, priority 2019, dated 2023)

Experiments:
RIPK1 = RIPK1 (Homo sapiens (Human), UniProt Q13546); assay: ADP-Glo Kinase Assay; type: biochemical; settings: 5 nM RIPK1 protein, 50 μM ATP, 6 hr reaction, average value across multiple runs
Outline: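 ADP formed from ATP is measured by ADP-Glo luminescence with 5 nM RIPK1, preincubated 10 min with compound, then 50 μM ATP for 6 h. Buffer is 50 mM HEPES pH 7.5, 50 mM NaCl, 30 mM MgCl2, 1 mM DTT, 0.05% BSA, 0.02% CHAPS. IC50 comes from a four-parameter fit, averaged over runs.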

[1] = system: human monocytic cell line U937; assay: Human U937 Cellular Necroptosis Assay; type: cell-based; settings: U-937; U937 cells stimulated with 25 ng/mL human TNFalpha and 25 μM z-VAD-FMK, 22 hr, viability by Cell Titer-Glo 2.0; average value across multiple runs; read-out: hU937 IC50
Procedure: Human U937 Cellular Necroptosis Assay
The human monocytic cell line U937 (CRL-1593.2) was purchased from ATCC. The cells were routinely maintained in RPMI-1640 Medium (Gibco, Catalog #11875-093) supplemented with 10% heat inactivated fetal bovine serum (Gibco, Catalog #16140-071), 100 units/mL penicillin and 100 μg/mL streptomycin (Gibco, Catalog #15140-122), in a humidified incubator (37° C., 5% CO2). For the assay, cells were resuspended in RPMI-1640 phenol red free Media (Gibco, Catalog #11835-030) supplemented with 10% fetal bovine serum (Sigma, Catalog #F2442), 100 units/mL penicillin and 100 ug/mL streptomycin. Cells were stimulated with 25 ng/mL human TNFalpha (Cell Sciences, Catalog #CSI15659B) and 25 μM z-VAD-FMK (R&D Systems, Catalog #FMK001) followed by seeding 5000 cells per well in a volume of 40 μL to a white, CulturPlate-384 (Perkin Elmer, Catalog #6007680). Stock solutions of the test compounds were prepared in 100% DMSO (Sigma, Catalog #D2650) and serially diluted 1:3 using 100% DMSO. Compounds were additionally diluted 1:40 in assay medium, and 10 μL/well was transferred to the plate. Following the compound addition the plate was incubated at 37° C. and 5% CO2 for 22 hr. After 22 hr, viability was assessed with the addition of 20 μL of Cell Titer-Glo 2.0 (Promega, Catalog #G9243). The tissue culture plate was shaken on an orbital shaker at 300 RPM for 15 minutes at room temperature in the dark. Luminescence was measured using a PerkinElmer Envision™ plate reader. IC50 values were calculated using a four-parameter logistic curve fit using Genedata Screener software. Results are shown below in Table 5, where the average value across multiple runs is given.

Chain of RIPK1 (Q13546 1-327): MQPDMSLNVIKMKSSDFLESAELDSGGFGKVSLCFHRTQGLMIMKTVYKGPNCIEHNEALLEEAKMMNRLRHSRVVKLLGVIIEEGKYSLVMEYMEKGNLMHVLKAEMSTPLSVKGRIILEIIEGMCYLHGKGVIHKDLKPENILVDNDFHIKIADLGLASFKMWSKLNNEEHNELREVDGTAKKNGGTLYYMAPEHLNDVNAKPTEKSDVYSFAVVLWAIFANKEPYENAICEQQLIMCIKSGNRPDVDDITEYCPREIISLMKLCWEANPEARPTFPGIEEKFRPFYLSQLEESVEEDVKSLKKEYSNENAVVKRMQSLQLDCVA

IC50 (RIPK1)	Structure (SMILES)	IC50 [1]
30.9 nM	Cc1ccc(-n2nc(C(=O)NC3CCc4ccccc4NC3=O)c(=O)cc2C)cc1 (stereo not shown) [Example 71, 6-methyl-4-oxo-N-(2-oxo-2,3,4,5-tetrahydro-1H-benzo[b]azepin-3-yl)-1-(p-tolyl)-1,4-dihydropyridazine-3-carboxamide]	50.2 nM
90.6 nM	Cc1cc(=O)c(C(=O)NC2CCn3nccc3N(C)C2=O)nn1-c1ccccc1 (stereo not drawn) [Example 72, 6-methyl-N-(4-methyl-5-oxo-5,6,7,8-tetrahydro-4H-pyrazolo[1,5-a][1,3]diazepin-6-yl)-4-oxo-l-phenyl-1,4-dihydropyridazine-3-carboxamide]	222 nM
